Several values for one entry are separate records, joined by “and”; a condition that tells them apart may be missing. Equal values may be shown once. Read-outs that look alike come from different tables or passages of the source.
Legend:
tra box-GUS reporter = tested on: tra box-GUS reporter
Procedure: Plasmids for transfection were isolated and purified using Megaprep plasmid DNA isolation kit (Qiagen). Carrot protoplasts for transfections were prepared from carrot cell suspension culture and transfected with purified DNA as described (Ulmasov et al., Plant Cell 7:1611–1623, 1995). Briefly, 10 μg of the reporter plasmid and 5 μg of the effector plasmid were incubated with 10^6 protoplasts for five minutes at the room temperature in the presence of polyethylene glycol-calcium solution. After diluting approximately 10-fold with the culture medium, the protoplasts were incubated in the dark for 36 hours either in the presence or absence of the inducer 3-oxohexanoyl-homoserine lactone (OHHL, racemic mixture of the L- and D-isomers, purchased from Sigma Chemical Co., St Louis, Mo.). After incubation, protoplasts were collected by low-speed centrifugation, lysed and the level of GUS activity was measured using fluorometric GUS assay (Jefferson et al., EMBO J. 6:3901–3907, 1987).
Ten μg of the reporter plasmid (pMON53031), and indicated amount of the 35S effector plasmid per reaction was used for transfection in triplicate. […] The “− inducer” and “+ inducer” columns are averages of the GUS activities.
These constructs were tested for background GUS activity and TraR responsiveness in carrot protoplasts.

TraR = target: T1, TraR (Agrobacterium tumefaciens, UniProt P33905); assay: β-galactosidase reporter assay in yeast (TraA8 element, galactose-inducible TraR); type: cell-based; settings: strain YPH499, c1.5 and 6, 3 copies of TraA8 element; 5 hrs growth on galactose; 50 μM C8-HSL
T1 construct: expressed in transfected cells; host or cells: Saccharomyces cerevisiae (strain 204142; YPH499)

VP16-TraR [1] = assay: Transient GUS reporter assay in carrot protoplasts with VP16-TraR effector and tra box reporter; type: cell-based, Agrobacterium tumefaciens; settings: Table 8: TraA8(4X) +TraR
From the text: Carrot protoplasts were transfected with the TraA8 (4×)-GUS reporter construct with the 35S-VP16-TraR activator gene and tested for GUS induction by application of wild type AHL and the various AHL analogs described in Example 8.

VP16-TraR [2] = tested on: VP16-TraR
Procedure: Transgenic Arabidopsis plants containing TraA8(3×)-GUS reporter and 35S-VP16-TraR activator genes (pMON53077) were analyzed for induction of GUS activity. […] GUS assays were conducted as described by Jefferson et al. (supra).
In addition, detached leaves incubated for 24 hours in MS medium with or without 100 μM HSL were visualized for induction of GUS activity after staining.

[3] = Table 6 lane 5: TraA2(3X), cl.43 + CAT, 12.5 μM C8-AHL
[4] = Table 6 lane 7: TraA3(3X), cl.4 + CAT, 12.5 μM C8-AHL
[5] = Table 6 lane 9: TraA4(3X), cl.23 + CAT, 12.5 μM C8-AHL
[6] = Table 6 lane 11: TraA5(3X), cl.2 + CAT, 12.5 μM C8-AHL
[7] = Table 6 lane 15: TraA7(3X), cl.15 + CAT, 12.5 μM C8-AHL
[8] = Table 6 lane 17: TraA8(3X), cl.4 + CAT, 12.5 μM C8-AHL
[9] = Table 6 lane 19: TraA9(3X), cl.8 + CAT, 12.5 μM C8-AHL
[10] = Table 6 lane 21: TraA10(3X), cl.17 + CAT, 12.5 μM C8-AHL
[11] = Table 6 lane 23: TraA-1(3X), cl.14 + CAT, 12.5 μM C8-AHL
[12] = Table 6 lane 25: min35S-46-GUS, 12.5 μM C8-AHL
[13] = Table 7 lane 1: S2-46GUS, 12.5 μM C8-AHL
[14] = Table 7 lane 2: TraA8(4X), cl.16 + CAT, 12.5 μM C8-AHL
[15] = Table 7 lane 4: TraA8(3X), cl.4(60 μg) + CAT, 12.5 μM C8-AHL
[16] = Table 7 lane 6: TraA8(3X), cl.4(60 μg) +TraM, 12.5 μM C8-AHL
[17] = Table 7 lane 7: TraA8(3X), cl.4(60 μg) +TraS, 12.5 μM C8-AHL
[18] = Table 8 lane 2: TraA8(4X) +CAT, 25 μM C8-HSL

T1 sequence (P33905 whole entry): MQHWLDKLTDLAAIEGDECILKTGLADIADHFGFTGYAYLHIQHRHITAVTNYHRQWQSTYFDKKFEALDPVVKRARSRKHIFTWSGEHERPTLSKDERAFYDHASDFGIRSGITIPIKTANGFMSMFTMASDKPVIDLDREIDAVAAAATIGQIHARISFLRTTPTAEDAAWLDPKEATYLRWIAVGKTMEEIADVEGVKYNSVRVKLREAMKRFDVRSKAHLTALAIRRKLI

Q: For CCCCCC(=O)CC(=O)N[C@H]1CCOC1=O [C8-HSL, 3-oxooctanoyl-L-homoserine lactone], which “4, 5, 6 (replicate GUS activities, +inducer)” value (tra box-GUS reporter; [3]) is on record?
A: 125.2 and 103.0 and 110.2

Q: What about the “+inducer (average GUS activity)” value (tra box-GUS reporter; [3]) of the same compound?
A: 112.8

Q: What about the “4, 5, 6 (replicate GUS activities, +inducer)” value (tra box-GUS reporter; [4]) of the same compound?
A: 59.2 and 62.8 and 46.4

Q: What about the “+inducer (average GUS activity)” value (tra box-GUS reporter; [4]) of the same compound?
A: 56.1

Q: And the “4, 5, 6 (replicate GUS activities, +inducer)” value (tra box-GUS reporter; [5])?
A: 87.9 and 86.4 and 85.9

Q: What about the “+inducer (average GUS activity)” value (tra box-GUS reporter; [5]) of the same compound?
A: 86.7

Q: What about the “4, 5, 6 (replicate GUS activities, +inducer)” value (tra box-GUS reporter; [6]) of the same compound?
A: 72.5 and 68.2 and 90.9

Q: What about the “+inducer (average GUS activity)” value (tra box-GUS reporter; [6]) of the same compound?
A: 77.2

Q: And the “+inducer (average GUS activity)” value (tra box-GUS reporter; Table 6 lane 13: TraA6(3X), cl.21 + CAT, 12.5 μM C8-AHL)?
A: 3.9

Q: And the “4, 5, 6 (replicate GUS activities, +inducer)” value (tra box-GUS reporter; [7])?
A: 241.3 and 197.1 and 268.5

Q: And the “+inducer (average GUS activity)” value (tra box-GUS reporter; [7])?
A: 235.6

Q: And the “4, 5, 6 (replicate GUS activities, +inducer)” value (tra box-GUS reporter; [8])?
A: 121.2 and 148.8 and 115.9

Q: What about the “+inducer (average GUS activity)” value (tra box-GUS reporter; [8]) of the same compound?
A: 128.7

Q: What about the “4, 5, 6 (replicate GUS activities, +inducer)” value (tra box-GUS reporter; [9]) of the same compound?
A: 97.4 and 96.7 and 89.6

Q: And the “+inducer (average GUS activity)” value (tra box-GUS reporter; [9])?
A: 94.6

Q: And the “4, 5, 6 (replicate GUS activities, +inducer)” value (tra box-GUS reporter; [10])?
A: 47.1 and 44.2 and 44.1

Q: What about the “+inducer (average GUS activity)” value (tra box-GUS reporter; [10]) of the same compound?
A: 45.1

Q: And the “4, 5, 6 (replicate GUS activities, +inducer)” value (tra box-GUS reporter; [11])?
A: 19.7 and 23.6 and 17.0

Q: And the “+inducer (average GUS activity)” value (tra box-GUS reporter; [11])?
A: 20.1

Q: And the “4, 5, 6 (replicate GUS activities, +inducer)” value (tra box-GUS reporter; [12])?
A: 39.6 and 32.1 and 44.5

Q: And the “+inducer (average GUS activity)” value (tra box-GUS reporter; [12])?
A: 38.7

Q: And the “4, 5, 6 (replicate GUS activities, +inducer)” value (tra box-GUS reporter; [13])?
A: 27.2 and 22.7 and 17.4

Q: And the “+inducer (average GUS activity)” value (tra box-GUS reporter; [13])?
A: 22.4

Q: What about the “4, 5, 6 (replicate GUS activities, +inducer)” value (tra box-GUS reporter; [14]) of the same compound?
A: 20.3 and 25.1 and 18.7

Q: And the “+inducer (average GUS activity)” value (tra box-GUS reporter; [14])?
A: 21.3

Q: What about the “4, 5, 6 (replicate GUS activities, +inducer)” value (tra box-GUS reporter; [15]) of the same compound?
A: 76.6 and 75.1 and 58.1

Q: And the “+inducer (average GUS activity)” value (tra box-GUS reporter; [15])?
A: 70.0

Q: And the “4, 5, 6 (replicate GUS activities, +inducer)” value (tra box-GUS reporter; [16])?
A: 105.0 and 102.1 and 86.8

Q: What about the “+inducer (average GUS activity)” value (tra box-GUS reporter; [16]) of the same compound?
A: 98.0

Q: What about the “4, 5, 6 (replicate GUS activities, +inducer)” value (tra box-GUS reporter; [17]) of the same compound?
A: 143.6 and 128.8 and 134.8

Q: What about the “+inducer (average GUS activity)” value (tra box-GUS reporter; [17]) of the same compound?
A: 135.7

Q: And the “4, 5, 6 (replicate GUS activities, +inducer)” value (tra box-GUS reporter; [18])?
A: 1101.9 and 791.0 and 1071.3

Q: What about the “+inducer (average GUS activity)” value (tra box-GUS reporter; [18]) of the same compound?
A: 988.1

Q: What about the “β-gal activity (chemiluminescent assay)” value (TraR) of the same compound?
A: strong induction

Q: And the “1, 2, 3 (replicate GUS activities at the lower concentration)” value (VP16-TraR [1]; 5 μM)?
A: 2820.7 and 3124.7 and 3110.7

Q: And the “4, 5, 6 (replicate GUS activities at the higher concentration)” value (VP16-TraR [1]; 12.5 μM)?
A: 4386.9 and 4031.2 and 4010.3

Q: What about the “1, 2, 3 (replicate GUS activities at the lower concentration)” value (VP16-TraR [1]; 25 μM) of the same compound?
A: 8183.1 and 7890.1 and 6855.5

Q: And the “4, 5, 6 (replicate GUS activities at the higher concentration)” value (VP16-TraR [1]; 75 μM)?
A: 8036.8 and 7647.1 and 8243.2

Q: What about the “histochemical GUS staining” value (VP16-TraR [2]; detached caulline leaves, 24 hours in MS medium, 100 μM HSL) of the same compound?
A: uniform induced activity

Q: What about the “+Inducer (GUS activity)” value (VP16-TraR [2]; plant s3553-1) of the same compound?
A: 556.56

Q: What about the “+Inducer (GUS activity)” value (VP16-TraR [2]; plant s3553-2) of the same compound?
A: 554.08

Q: And the “+Inducer (GUS activity)” value (VP16-TraR [2]; plant s3554-1)?
A: 3101.09

Q: And the “+Inducer (GUS activity)” value (VP16-TraR [2]; plant s3554-2)?
A: 3098.61

Q: What about the “+Inducer (GUS activity)” value (VP16-TraR [2]; plant s3559-1) of the same compound?
A: 599.93

Q: What about the “+Inducer (GUS activity)” value (VP16-TraR [2]; plant s3559-2) of the same compound?
A: 597.45

Q: And the “+Inducer (GUS activity)” value (VP16-TraR [2]; plant s3562-1)?
A: 75.93

Q: What about the “+Inducer (GUS activity)” value (VP16-TraR [2]; plant s3562-2) of the same compound?
A: 73.45

Q: And the “+Inducer (GUS activity)” value (VP16-TraR [2]; plant s3570-1)?
A: 4831.21

Q: What about the “+Inducer (GUS activity)” value (VP16-TraR [2]; plant s3570-2) of the same compound?
A: 4828.73

Q: And the “+Inducer (GUS activity)” value (VP16-TraR [2]; plant s3573-1)?
A: 768.65

Q: And the “+Inducer (GUS activity)” value (VP16-TraR [2]; plant s3573-2)?
A: 766.17

Q: And the “+Inducer (GUS activity)” value (VP16-TraR [2]; plant s3575-1)?
A: 3453.00

Q: What about the “+Inducer (GUS activity)” value (VP16-TraR [2]; plant s3575-2) of the same compound?
A: 3450.52

Q: And the “+Inducer (GUS activity)” value (VP16-TraR [2]; plant s3582-1)?
A: 559.86

Q: What about the “+Inducer (GUS activity)” value (VP16-TraR [2]; plant s3582-2) of the same compound?
A: 557.38

Q: What about the “+Inducer (GUS activity)” value (VP16-TraR [2]; plant s3594-1) of the same compound?
A: 515.77

Q: What about the “+Inducer (GUS activity)” value (VP16-TraR [2]; plant s3594-2) of the same compound?
A: 513.29

Q: What about the “+Inducer (GUS activity)” value (VP16-TraR [2]; plant wild-type) of the same compound?
A: 2.48

Reference: patent publication US7202085B2, “Control of gene expression in eukaryotic cells” (Calgene LLC, priority 1999, dated 2007)
